Results reported in publication PMC4802617 (Chinese Medicine, 2016).
Values joined by “and” are separate entries in the source; they are usually repeats but may differ in a detail not shown here. Identical values can stand only once. “Also recorded” adds a separate entry of the source. Counter-ions that a name gives are not always drawn. Like-named read-outs stand apart in the source and are kept apart here.

Key:
[1] = molecular target: T1, CYP2C9 (Homo sapiens, UniProt P11712); settings: cited from earlier work
T1 construct: tissue Cypex Ltd. (UK); host or cells: pooled human liver microsomes, ten donors

[2] = system: human CYP1A2 isoform; settings: specific human CYP1A2 isoform, competitive ref 32; cited from earlier work
[3] = molecular target: T2, CYP1A2 (Homo sapiens, UniProt P05177); set-up: tissue Cypex Ltd. (UK); host or cells: pooled human liver microsomes, ten donors; settings: CYP1A2, pooled HLMs, competitive ref 32; cited from earlier work
T2 sequence (P05177 1-516): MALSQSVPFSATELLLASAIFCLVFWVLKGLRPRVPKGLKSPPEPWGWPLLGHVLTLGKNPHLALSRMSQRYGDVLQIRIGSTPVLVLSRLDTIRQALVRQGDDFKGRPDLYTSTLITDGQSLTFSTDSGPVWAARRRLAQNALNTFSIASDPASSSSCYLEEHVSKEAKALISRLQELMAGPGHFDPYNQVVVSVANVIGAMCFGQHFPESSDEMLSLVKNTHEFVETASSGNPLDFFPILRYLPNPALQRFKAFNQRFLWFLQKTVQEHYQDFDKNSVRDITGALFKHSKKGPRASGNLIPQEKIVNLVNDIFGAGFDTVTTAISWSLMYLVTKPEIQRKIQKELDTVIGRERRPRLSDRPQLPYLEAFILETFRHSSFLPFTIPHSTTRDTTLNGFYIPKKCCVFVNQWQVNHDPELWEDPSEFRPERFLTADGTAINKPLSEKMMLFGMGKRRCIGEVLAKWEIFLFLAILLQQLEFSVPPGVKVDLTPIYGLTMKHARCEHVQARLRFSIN

[4] = molecular target: T3, CYP2E1 (Homo sapiens, UniProt P05181); settings: CYP2E1 ref 28; read-out: Ki, specific inhibitor/reported values; cited from earlier work
T3 construct: tissue Cypex Ltd. (UK); host or cells: pooled human liver microsomes, ten donors

[5] = molecular target: T4, CYP3A4 (Homo sapiens, UniProt P08684); experiment: Inhibition of midazolam 1-hydroxylation in HLMs (IC50, Ki, Dixon plots); assay type: in vitro ADME; set-up: tissue Cypex Ltd. (UK); host or cells: pooled human liver microsomes, ten donors
Method: (§1) The CYP isoform-specific probe reactions used were phenacetin O-deethylation (for CYP1A2), coumarin 7-hydroxylation (for CYP2A6), tolbutamide 4-hydroxylation (for CYP2C9), metoprolol α-hydroxylation (for CYP2D6), chlorzoxazone 6-hydroxylation (for CYP2E1), S-mephenytoin 4-hydroxylation (for CYP2C19), and midazolam 1-hydroxylation (for CYP3A4). […] Each reaction was initiated by addition of 1 mg/mL NADPH. The final incubations were performed in a shaking water bath at 37 °C for 30 min. The incubations were performed in triple, and the incubation conditions specific to each CYP isoform were within the linear range for the velocity of the reaction (incubation time as well as substrate and protein concentrations). […] The reactions were stopped by adding 0.2 mL of ice-cold acetonitrile containing irbesartan (114.9 ng/mL) as the internal standard. The samples were vortexed for 5 min. After centrifugation (5415D centrifuge, Eppendorf, Germany) (12,000×g for 10 min), the supernatants were transferred and aliquots of 20 µL were injected into the HPLC–MS/MS system for analysis.
(§2) A pilot inhibitory analysis of each CYP isoform was performed to determine the potency of inhibition and to select CYP isoforms for further detailed study of their inhibitory activities. […] The substrates comprising phenacetin, coumarin, tolbutamide, metoprolol, chlorzoxazone, S-mephenytoin, and midazolam were employed at concentrations of 10, 5, 100, 7.5, 40, 100, and 5 µM, respectively. All incubation conditions were the same as those described above.
Therefore, Dixon plots for the inhibition of CYP3A4 were determined by incubating the substrate probe at multiple concentrations with or without the test inhibitor at multiple concentrations with the HLMs and cofactors. The inhibition data obtained from the pilot experiments were used as a guide to generate appropriate probe substrate and test inhibitor concentrations for determination of the Ki values for each CYP isoform. The isoform-specific probe substrate concentrations used were 5–50 µM midazolam for CYP3A4.
(§3) Values of P < 0.05 denoted significance in all cases. […] The activity of each CYP isoform was calculated by the MCR of its corresponding probe substrate to determine the inhibition of the CYP isoforms. […] The IC50 values were determined by analyzing the plot of the logarithm of the inhibitor concentration versus the percentage of activity remaining after inhibition, using the SPSS for Windows Version 11.5 (SPSS Inc., USA). The inhibition data were fitted to different models of enzyme inhibition (competitive, noncompetitive, and uncompetitive) by nonlinear least-squares regression analysis using GraphPad Prism 5 software (GraphPad Co. Ltd., USA) to calculate the Ki values.

[6] = molecular target: T1, CYP2C9; experiment: Inhibition of tolbutamide 4-hydroxylation in HLMs; assay type: in vitro ADME
Method: as §1, §2
(§4) Values of P < 0.05 denoted significance in all cases. […] The activity of each CYP isoform was calculated by the MCR of its corresponding probe substrate to determine the inhibition of the CYP isoforms. […] The IC50 values were determined by analyzing the plot of the logarithm of the inhibitor concentration versus the percentage of activity remaining after inhibition, using the SPSS for Windows Version 11.5 (SPSS Inc., USA). […]

[7] = molecular target: T5, CYP2A6 (Homo sapiens, UniProt P11509); experiment: Inhibition of coumarin 7-hydroxylation in HLMs; assay type: in vitro ADME
T5 construct: tissue Cypex Ltd. (UK); host or cells: pooled human liver microsomes, ten donors
T5 sequence (P11509 1-494): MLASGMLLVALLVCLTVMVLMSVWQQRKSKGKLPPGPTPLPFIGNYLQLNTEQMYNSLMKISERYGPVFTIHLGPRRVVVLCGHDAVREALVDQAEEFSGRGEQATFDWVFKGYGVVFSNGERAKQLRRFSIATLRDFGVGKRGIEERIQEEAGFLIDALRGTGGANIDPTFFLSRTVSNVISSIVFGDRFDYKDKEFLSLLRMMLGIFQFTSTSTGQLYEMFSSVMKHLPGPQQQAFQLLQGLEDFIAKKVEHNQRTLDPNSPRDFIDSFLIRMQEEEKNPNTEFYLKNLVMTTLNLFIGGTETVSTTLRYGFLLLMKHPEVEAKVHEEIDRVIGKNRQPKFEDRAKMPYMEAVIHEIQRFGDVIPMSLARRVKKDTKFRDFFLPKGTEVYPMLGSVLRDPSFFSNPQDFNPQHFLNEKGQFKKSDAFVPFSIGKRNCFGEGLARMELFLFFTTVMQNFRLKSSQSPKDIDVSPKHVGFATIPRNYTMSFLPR
Method: as §1, §2, §4

[8] = molecular target: T6, CYP2D6 (Homo sapiens, UniProt P10635); experiment: Inhibition of metoprolol α-hydroxylation in HLMs; assay type: in vitro ADME
T6 construct: tissue Cypex Ltd. (UK); host or cells: pooled human liver microsomes, ten donors
Method: as §1, §2, §4

[9] = rats, cited from earlier work
[10] = Kinetic analysis of STS metabolism by human liver microsomes; assay type: in vitro ADME
Method: as §1
The incubation conditions consisted of substrate probe, HLMs (0.5 mg/mL) or CYP isoforms (10 pmol), and 0.1 M sodium phosphate buffer (pH 7.4) in a total volume of 0.2 mL. […] All values were expressed as the mean ± standard deviation (SD). The mean intrinsic clearance rate (CLint) for the in vitro incubation was estimated by Vmax/Km.
as §3

[11] = molecular target: T3, CYP2E1; experiment: Inhibition of chlorzoxazone 6-hydroxylation in HLMs; assay type: in vitro ADME
Method: as §1, §2, §4

[12] = Effects of specific CYP inhibitors on metabolic clearance rate (MCR) of STS in HLMs; assay type: in vitro ADME, human; settings: STS 10 µM, in the presence of KET 1 µM
[13] = rats, intravenous 2 mg/kg, cited from earlier work
[14] = molecular target: T4, CYP3A4; experiment: Kinetic analysis of STS metabolism by recombinant CYP3A4; assay type: in vitro ADME
Method: The CYP isoform-specific probe reactions used were phenacetin O-deethylation (for CYP1A2), coumarin 7-hydroxylation (for CYP2A6), tolbutamide 4-hydroxylation (for CYP2C9), metoprolol α-hydroxylation (for CYP2D6), chlorzoxazone 6-hydroxylation (for CYP2E1), S-mephenytoin 4-hydroxylation (for CYP2C19), and midazolam 1-hydroxylation (for CYP3A4). […] Each reaction was initiated by addition of 1 mg/mL NADPH. The final incubations were performed in a shaking water bath at 37 °C for 30 min. The incubations were performed in triple, and the incubation conditions specific to each CYP isoform were within the linear range for the velocity of the reaction (incubation time as well as substrate and protein concentrations). […]
The incubation conditions consisted of substrate probe, HLMs (0.5 mg/mL) or CYP isoforms (10 pmol), and 0.1 M sodium phosphate buffer (pH 7.4) in a total volume of 0.2 mL. […] All values were expressed as the mean ± standard deviation (SD). […]
as §4

[15] = molecular target: T2, CYP1A2; experiment: Inhibition of phenacetin O-deethylation in HLMs; assay type: in vitro ADME; set-up: tissue Cypex Ltd. (UK); host or cells: pooled human liver microsomes, ten donors
Method: as §1, §2, §4

[16] = molecular target: T7, CYP2C19 (Homo sapiens, UniProt P33261); experiment: Inhibition of S-mephenytoin 4-hydroxylation in HLMs; assay type: in vitro ADME
T7 construct: tissue Cypex Ltd. (UK); host or cells: pooled human liver microsomes, ten donors
Method: as §1, §2, §4

[17] = molecular target: T2, CYP1A2; settings: in vivo; cited from earlier work
[18] = molecular target: T4, CYP3A4; experiment: MCR of STS with recombinant CYP3A4 under inhibition by KET; assay type: in vitro ADME; settings: KET 1 µM
[19] = classification of Kong et al., read-out: potency class of inhibitor by IC50

T4 sequence (P08684 whole entry, canonical isoform): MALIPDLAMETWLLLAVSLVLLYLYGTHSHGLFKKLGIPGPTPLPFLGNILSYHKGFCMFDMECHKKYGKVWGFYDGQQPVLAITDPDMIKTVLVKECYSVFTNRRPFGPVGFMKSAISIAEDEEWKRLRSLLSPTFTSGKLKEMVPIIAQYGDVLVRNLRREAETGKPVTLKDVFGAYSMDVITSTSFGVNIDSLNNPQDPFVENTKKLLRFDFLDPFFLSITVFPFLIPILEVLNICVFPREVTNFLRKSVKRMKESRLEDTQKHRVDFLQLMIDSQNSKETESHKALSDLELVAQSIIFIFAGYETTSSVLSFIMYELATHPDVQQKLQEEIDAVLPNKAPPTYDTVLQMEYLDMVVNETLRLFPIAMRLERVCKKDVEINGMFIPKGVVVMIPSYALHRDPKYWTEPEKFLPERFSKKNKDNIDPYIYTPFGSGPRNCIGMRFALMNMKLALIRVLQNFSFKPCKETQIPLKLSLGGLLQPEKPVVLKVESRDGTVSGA
T7 sequence (P33261 whole entry): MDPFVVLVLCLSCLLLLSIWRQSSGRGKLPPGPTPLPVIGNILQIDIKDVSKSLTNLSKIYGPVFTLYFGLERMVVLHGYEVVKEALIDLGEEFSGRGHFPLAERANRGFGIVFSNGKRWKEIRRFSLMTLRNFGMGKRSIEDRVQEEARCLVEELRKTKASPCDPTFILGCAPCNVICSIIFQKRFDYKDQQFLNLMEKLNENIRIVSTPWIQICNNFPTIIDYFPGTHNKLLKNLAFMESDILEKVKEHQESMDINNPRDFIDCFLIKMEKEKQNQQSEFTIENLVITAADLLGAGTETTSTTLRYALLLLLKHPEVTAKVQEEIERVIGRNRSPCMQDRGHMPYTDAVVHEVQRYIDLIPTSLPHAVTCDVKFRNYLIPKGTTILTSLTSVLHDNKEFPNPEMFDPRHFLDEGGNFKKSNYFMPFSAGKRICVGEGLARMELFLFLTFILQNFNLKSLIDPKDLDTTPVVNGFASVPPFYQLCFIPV
T6 sequence (P10635 whole entry): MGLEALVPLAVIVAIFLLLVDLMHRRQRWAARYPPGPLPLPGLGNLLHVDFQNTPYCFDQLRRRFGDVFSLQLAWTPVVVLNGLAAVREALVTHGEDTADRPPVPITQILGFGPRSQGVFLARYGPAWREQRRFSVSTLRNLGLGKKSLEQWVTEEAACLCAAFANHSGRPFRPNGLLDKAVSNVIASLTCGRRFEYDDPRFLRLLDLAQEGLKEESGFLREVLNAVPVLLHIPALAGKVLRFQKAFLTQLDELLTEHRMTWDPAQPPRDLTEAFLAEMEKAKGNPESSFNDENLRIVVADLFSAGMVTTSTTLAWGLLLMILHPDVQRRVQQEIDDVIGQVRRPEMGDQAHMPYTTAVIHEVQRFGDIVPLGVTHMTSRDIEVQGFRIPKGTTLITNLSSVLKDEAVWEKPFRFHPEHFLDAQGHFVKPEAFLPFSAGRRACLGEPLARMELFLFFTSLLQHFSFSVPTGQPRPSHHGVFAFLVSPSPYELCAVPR
T1 sequence (P11712 whole entry): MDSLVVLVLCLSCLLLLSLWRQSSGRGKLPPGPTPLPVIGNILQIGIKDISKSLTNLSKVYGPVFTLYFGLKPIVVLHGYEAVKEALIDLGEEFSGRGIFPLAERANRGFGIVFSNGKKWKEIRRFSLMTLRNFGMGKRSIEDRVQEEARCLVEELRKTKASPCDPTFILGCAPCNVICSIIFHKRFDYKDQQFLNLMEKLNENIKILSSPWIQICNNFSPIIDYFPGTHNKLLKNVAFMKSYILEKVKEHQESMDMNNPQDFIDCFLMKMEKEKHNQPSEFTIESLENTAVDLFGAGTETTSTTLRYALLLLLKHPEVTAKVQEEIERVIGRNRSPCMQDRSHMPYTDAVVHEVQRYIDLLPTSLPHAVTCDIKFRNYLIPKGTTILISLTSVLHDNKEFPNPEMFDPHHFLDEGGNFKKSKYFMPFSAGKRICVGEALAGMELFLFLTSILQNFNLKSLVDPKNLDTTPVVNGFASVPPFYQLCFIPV
T3 sequence (P05181 whole entry): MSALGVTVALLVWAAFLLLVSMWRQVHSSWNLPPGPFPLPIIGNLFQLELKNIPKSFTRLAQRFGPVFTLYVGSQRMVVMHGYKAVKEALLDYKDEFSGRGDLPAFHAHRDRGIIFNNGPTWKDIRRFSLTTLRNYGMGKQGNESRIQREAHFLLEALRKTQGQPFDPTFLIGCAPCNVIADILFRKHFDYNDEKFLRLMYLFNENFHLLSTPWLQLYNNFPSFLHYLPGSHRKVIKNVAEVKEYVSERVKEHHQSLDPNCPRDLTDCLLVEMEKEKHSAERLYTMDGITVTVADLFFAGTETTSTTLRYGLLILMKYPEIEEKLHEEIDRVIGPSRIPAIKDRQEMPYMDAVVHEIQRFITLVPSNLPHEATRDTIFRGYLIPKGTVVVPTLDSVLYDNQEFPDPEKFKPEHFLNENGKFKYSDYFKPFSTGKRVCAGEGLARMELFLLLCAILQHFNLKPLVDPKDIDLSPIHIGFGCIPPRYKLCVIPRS

Cc1coc2c1C(=O)C(=O)c1c-2ccc2c1CCCC2(C)C [tanshinone IIA]
inhibition of CYP2C9 [1]: medium competitive inhibitor
Ki [2]: 0.05 µM
Ki [3]: 1.45 µM

Cc1ncsc1CCCl [CHL, chlormethiazole hydrochloride]
Ki [4]: 12 µM

Cc1c(S(=O)(=O)O)oc2c1C(=O)C(=O)c1c-2ccc2c1CCCC2(C)C [STS, sodium tanshinone IIA sulfonate]
Ki fold higher than that of KET ([5]; HLMs, versus reported KET value): approximately 212 fold
IC50 ([5]; STS 1–100 µM, midazolam 5 µM, HLMs, brackets = 95 % confidence interval, read-out: IC50): 6.4 µM and 6.38 µM
IC50 [5, 19]: ≤ 10 µM
type of inhibition ([5]; midazolam 1-hydroxylation in HLMs, Dixon / Lineweaver–Burk plots): competitive type of inhibition; also recorded: full competitive inhibition
IC50 fold higher than that of KET ([5]; midazolam 1-hydroxylation, HLMs, versus reported KET values): 26.6–79.7 fold
Ki ([5]; midazolam 5–50 µM, STS 0–100 µM, HLMs, competitive model, brackets = 95 % confidence interval): 3.18 µM
inhibitory effect on CYP2C9 activity ([6]; STS 1–100 µM, HLMs): minimal; also recorded: negligible
IC50 ([6]; STS 1–100 µM, tolbutamide 100 µM, HLMs, read-out: IC50): > 100 µM
IC50 [6, 19]: ≥ 50 µM
inhibitory effect on CYP2A6 activity ([7]; STS 1–100 µM, HLMs): minimal; also recorded: negligible
IC50 ([7]; STS 1–100 µM, coumarin 5 µM, HLMs, read-out: IC50): > 100 µM
IC50 [7, 19]: ≥ 50 µM
inhibitory effect on CYP2D6 activity ([8]; STS 1–100 µM, HLMs): minimal; also recorded: negligible
IC50 ([8]; STS 1–100 µM, metoprolol […], HLMs, read-out: IC50): > 100 µM
IC50 [8, 19]: ≥ 50 µM
plasma concentration ([9]; 4 h after the injection ref 15, 16): ≤ 20 ng/mL
t1/2 ([9]; after injection ref 15, 16): < 54 min
Vmax ([10]; Fig. 2a, human liver microsomes): 0.9
Vmax ([10]; STS metabolism, HLMs 0.5 mg/mL, mean ± SD): 0.9 ± 0.1 nmol/mg protein/min
Km ([10]; human, human liver microsomes, pH 7.4): 54.8 ± 14.6 µM
microsomal CLint ([10]; human, human liver microsomes, pH 7.4, read-out: in vitro CLint): 16 µL/min/mg
inhibitory effect on CYP2E1 activity ([11]; STS 1–100 µM, HLMs): minimal; also recorded: negligible
IC50 ([11]; STS 1–100 µM, chlorzoxazone 40 µM, HLMs, read-out: IC50): > 100 µM
IC50 [11, 19]: ≥ 50 µM
MCR of STS, of control [12]: 37.4%
maximal STS concentration in liver ([13]; 5 min after administration ref 15, 16): > 10 µg/mL
detection in other tissues ([13]; 2 h after administration, other tissues ref 15, 16): hardly detected
time after administration at which STS could be determined ([13]; kidney ref 15, 16): 4 h
time after administration at which STS could be determined ([13]; liver ref 15, 16): 12 h
Vmax ([14]; Fig. 2b, CYP3A4, printed in picture): 6.8
in vitro CLint ([14]; STS with CYP3A4, Vmax/Km): 0.902 mL/nmol P450/min
inhibitory effect on CYP1A2 activity ([15]; STS 1–100 µM, HLMs): minimal; also recorded: negligible; also recorded: not an inhibitor
IC50 ([15]; STS 1–100 µM, phenacetin 10 µM, HLMs, read-out: IC50): > 100 µM
IC50 [15, 19]: ≥ 50 µM
inhibitory effect on CYP2C19 activity ([16]; STS 1–100 µM, HLMs): minimal; also recorded: negligible
IC50 ([16]; STS 1–100 µM, S-mephenytoin 100 µM, HLMs, read-out: IC50): > 100 µM
IC50 [16, 19]: ≥ 50 µM
increase of CYP1A2 activity [17]: 41.1%
MCR of STS, of control value ([18]; recombinant CYP3A4, STS 10 µM): 58.4%
MCR of STS, of control value ([18]; recombinant CYP3A4, STS 50 µM): 29.4%
